Results on seven molecules are retold here after patent US11384073B2, “Maleate salt of benzothiophene compound, crystalline form thereof, and use thereof” (SHANGHAI INSTITUTE OF MATERIA MEDICA, CHINESE ACADEMY OF …, priority 2018, dated 2022).

A short description of data set [1]: Comparison of stability (Factors influencing test).
Data set [2] in a line: Comparison of solubility of the compounds. It counts as physicochemical. How it is done:
An appropriate amount of a sample was weighted in a glass tube, the selected solvent was added thereto in a gradient and the resultant was observed until it became clear.

The nature of data set [3]: Comparison of appearance and compositions of the compounds. The data set is classed as physicochemical. The text has this:
The basic compound of compound Z (Example 1) was compared with the different salts of compound Z (Examples 2, 6-12) for their appearance, compositions, crystalline forms, etc., and the results are shown in the following table: […]

Data set [4] can be described thus: Comparison of hygroscopicity. It counts as physicochemical. The conditions noted are these: relative humidity 92.5%, 96 hours; for Moisture gain: room temperature. How it is done:
The basic compound of compound Z (Example 1) and the different salts of compound Z (Examples 2, 4-6, 9) were studied for their hygroscopicity. A certain amount of the test sample was placed in a precisely weighed glass weighing bottle with a stopper, and weighed accurately. The weighing bottle was openly placed in a desiccator (a saturated potassium nitrate solution was placed in the lower part, with a relative humidity of 92.5%), and kept at room temperature for 96 hours, and then the weighing bottle was covered with the stopper and weighed accurately. The moisture gain was calculated.

The subject of data set [5] is Wistar rats. Kind of data set: Acute toxicity experiments in rats. The data set is classed as in vivo. The method, then:
Wistar rats were randomly divided into 3 groups with 10 rats in each group. The animals were fasted for 12 hours before the administration, and the muscle relaxation state of the animals was observed 1 hour after the administration. The animal's two forepaws were gripped on a 40 cm-high hemp rope for testing for three times. The case in which the animal could put the hind paws on the rope within 15 s for two or more times was regarded as no muscle relaxation. Otherwise, it was regarded as muscle relaxation. After each animal's muscle relaxation test, a catalepsy experiment was performed, and the “grip rod” experiment method was used to determine the rat's rigidity duration. The rat's two forepaws were gently put on a small rod to test the duration time that the rats maintained their two forepaws on the rod in a 45-degree posture. […] If the rat's forepaw had not been put down, the observation was terminated at 180 s.

[6] abbreviates: High temperature (60° C.), Day 2.
Setting [7] is: Illumination (4500 lx ± 500 lx), Day 2.

Converted amounts (≈) assume the structure as drawn. Like-named read-outs stand apart in the source and are kept apart here.

Turning to `O=c1ccc2ccc(CCN3CCN(c4cccc5sccc45)CC3)cc2[nH]1` [Compound Z, 7-(2-(4-(benzo[b]thiophen-4-yl)piperazin-1-yl)ethyl)quinoline-2(1H)-one], the Purity in data set [1] (Day 0) is 98.07%; in data set [1] (setting [6]), 98.03%; in data set [1] (setting [7]), 98.01%. The “Stability (in words)” value in data set [1] (under high temperature and illumination conditions) is reported as “high stability”. The “Solubility in deionized water (comparison in words)” value in data set [2] (Deionized water) was “significantly lower than those of the salts of compound Z”. The Solubility (commonly how much of the substance goes into solution per volume) in data set [2] (buffer pH 2, aqueous buffer, thermodynamic from solid, buffer with pH = 2, read-out: Solubility) came out at 6.8 µg/mL (≈ 17.5 µM); in data set [2] (buffer pH 4.5, aqueous buffer, thermodynamic from solid, buffer with pH = 4.5, read-out: Solubility), 0.7 µg/mL (≈ 1.8 µM). Besides, the Composition result in data set [3] is listed as “constant”. For the same molecule, the Crystal water entry in data set [3] was “No”. Moreover, in data set [3], the Static electricity entry was “No”. Moreover, the Moisture gain in data set [4] is on record as −0.16%. For the same molecule, the “Acute toxicity, recovery and animal deaths (comparison in words)” value in data set [5] (dose of 200 mg/kg) is “the highest toxicity, the slowest recovery, and the most animal deaths”.

As for `O=C(O)/C=C/C(=O)O.O=c1ccc2ccc(CCN3CCN(c4cccc5sccc45)CC3)cc2[nH]1` [Fumarate of compound Z, Fumarate of 7-(2-(4-(benzo[b]thiophen-4-yl)piperazin-1-yl)ethyl)quinoline-2(1H)-one], the Solubility in data set [2] (Deionized water) was determined as 117.6 µg/mL; in data set [2] (buffer with pH = 2) it was 2.0 µg/mL; in data set [2] (buffer with pH = 4.5), 1.8 µg/mL. In addition, the Composition result in data set [3] was “constant”. Moreover, the Crystal water result in data set [3] is on record as “No”. Moreover, in data set [3], the Static electricity result is “No”.

As to `CS(=O)(=O)O.O=c1ccc2ccc(CCN3CCN(c4cccc5sccc45)CC3)cc2[nH]1` [Methanesulfonate of compound Z, Methanesulfonate of 7-(2-(4-(benzo[b]thiophen-4-yl)piperazin-1-yl)ethyl)quinoline-2(1H)-one], the Purity in data set [1] (Day 0) is listed as 98.60%; in data set [1] (setting [6]), 98.47%; in data set [1] (setting [7]), 98.54%. In addition, in data set [4], the “Hygroscopicity (in words)” value is listed as “relatively high hygroscopicity”. Moreover, the Moisture gain in data set [4] worked out at 1.74%. In addition, the “Animal status after single administration (rigidity/muscle relaxation)” value in data set [5] (gavage 200 mg/kg, 10 per group, Day 7) was 5 normal.

On to `Cl.O.O=c1ccc2ccc(CCN3CCN(c4cccc5sccc45)CC3)cc2[nH]1` [Monohydrochloride of compound Z, Monohydrochloride Monohydrate of 7-(2-(4-(benzo[b]thiophen-4-yl)piperazin-1-yl)ethyl)quinoline-2(1H)-one], for which, in data set [4], the “Hygroscopicity (in words)” value is reported as “relatively high hygroscopicity” and the Moisture gain turned out to be 7.01%.

For `O=P(O)(O)O.O=c1ccc2ccc(CCN3CCN(c4cccc5sccc45)CC3)cc2[nH]1` [Phosphate of compound Z, Phosphate of 7-(2-(4-(benzo[b]thiophen-4-yl)piperazin-1-yl)ethyl)quinoline-2(1H)-one], the Solubility in data set [2] (Deionized water) was 181.2 µg/mL. Moreover, the Solubility in data set [2] (buffer with pH = 2) came to 2.8 µg/mL. In data set [2] (buffer with pH = 4.5), this molecule returned a Solubility of 0.1 µg/mL. Further, in data set [3], the Composition result was “constant”, the Crystal water result was “No” and the Static electricity result was “No”.

As to `O=C(O)CCC(=O)O.O=c1ccc2ccc(CCN3CCN(c4cccc5sccc45)CC3)cc2[nH]1` [Succinate of compound Z, Succinate of 7-(2-(4-(benzo[b]thiophen-4-yl)piperazin-1-yl)ethyl)quinoline-2(1H)-one], the Purity in data set [1] (Day 0) came to 98.95%; in data set [1] (setting [6]), 99.93%; in data set [1] (setting [7]), 99.92%. In data set [4], the Moisture gain came to 2.02%.

As to “Citrate of 7-(2-(4-(benzo[b]thiophen-4-yl)piperazin-1-yl)ethyl)quinoline-2(1H)-one [Citrate of compound Z]”, in data set [3], the Composition entry is given as “constant”, the Crystal water result is recorded as “No” and the Static electricity entry was “No”. In data set [4], the “Hygroscopicity (in words)” value is given as “lower hygroscopicity” and the Moisture gain turned out to be 0.53%.
